The text below walks through data of patent US20210355115A1, “ISOXAZOLE CARBOXAMIDE COMPOUNDS AND USES THEREOF” (Novartis AG, priority 2018, published 2021).

The test deals with Atoh1. As to the kind of experiment: Atoh1 induction assay in mouse cerebellar neural precursor cells (Atoh1-GFP reporter assay). The test is classed as cell-based. To be noted: maximum fold difference over DMSO control (=1), cerebellar NPCs from Atoh1-GFP mice, 10 doses 50 μM to 200 nM, 72 hours treatment, read-out: Fold Difference (ratio of Atoh1-GFP average intensity_FC to DMSO_Max). The procedure:
Atoh1 induction assay was conducted with in vitro cultured cerebellar neural precursor cells isolated from neonatal transgenic Atoh1-GFP mice. Atoh1 expression is mainly regulated by the enhancer, and the nuclear GFP was driven by the cloned enhancer sequence at 3′ of Atoh1 which had high conservation among mammalians So Atoh1 induction could be reflected by GFP activation in cerebellar neural precursor cells (Helms et al., Development 2000; 127: 1185-1196; Lumpkin et al., Gene Expression Patterns 2003; 3: 389-395). Postnatal 3 days pups were dissected for cerebellum tissue isolation. The cerebellum tissue was cut into small pieces, and dissociated with 0.05% Trypsin for about 10 minutes at 37° C., and then filtered with a 70 uM cell strainer. The cells were cultured as neuropsheres for the first 2 days in ultra-low attachment dish/well-plate with DMEM/F12+1% N2 &2% B27 with 1% P/S, 20 ng/ml rhFGF2 and 20 ng/ml rhEGF (R&D Systems). Then the spheres were plated to the matrigel (1:30 diluted in DMEM/F12)-coated tissue culture dish for monolayer culture. After 4.5-5.5 days culture in vitro (DIV), cells were dissociated with 0.05% trypsin into single cells, and frozen after cell number calculation.
The cerebellar neural precursor cells (NPCs) were re-thawed from stock and cultured for another 2 days before used for Atoh1 induction assay. On the first day of assay, NPCs were seeded into matrigel-coated 384 well plates (Black view-plate, PE) at 2500 cells/well. After over-night culture, the NPCs were treated with representative compounds of the present disclosure with 1:2 serial dilutions for 10 doses, from 50 μM to 200 nM, with DMSO as negative control. After 72 hours treatment without medium change, the cells were fixed with 4% formalin for staining Assay plates were stained with GFP antibody (Abcam, #13970, 1:1000) to amplify endogenous GFP signal and then read by Cellomics. […] Table 1 Atoh1 activation by treatment of Compounds of the present disclosure (Atoh1-GFP reporter assay in cerebellar NPCs)
For the compound `N#C[C@H]1CCN(CCCCCNC(=O)c2cc(-c3ccc(F)cc3)on2)C[C@H]1O` (single isomer, unassigned) [Example 2], the maximal fold induction turned out to be 11.5.
As for `NC(=O)[C@@H]1CCN(CCCCCNC(=O)c2cc(-c3cccs3)on2)C[C@@H]1O` (stereo in doubt) [Example 30, N-(5-(4-carbamoyl-3-hydroxypiperidin-1-yl)pentyl)-5-(thiophen-2-yl)isoxazole-3-carboxamide], the maximal fold induction is 16.1.
For `N#C[C@@H]1CN(CCCCCNC(=O)c2cc(-c3cccs3)on2)C[C@@H]1O` [34 cis], the maximal fold induction stood at 11.2.
Turning to `NC(=O)[C@H](O)CN1CCN(CCCCCNC(=O)c2cc(-c3cccs3)on2)CC1` [37 R], the maximal fold induction was 29.2.
`NC(=O)[C@@H](O)CN1CCN(CCCCCNC(=O)c2cc(-c3cccs3)on2)CC1` [37 S]: the maximal fold induction was 31.5.
The result for `N#C[C@@H]1CN(CCCCCNC(=O)c2cc(-c3cccs3)on2)CC[C@@H]1C(N)=O` [Example 1, N-(5-((3S,4S)-4-carbamoyl-3-cyanopiperidin-1-yl)pentyl)-5-(thiophen-2-yl)isoxazole-3-carboxamide] reads 12.7; that for `O=C(NCCCCCN1CC(S(=O)(=O)NC2COC2)C1)c1cc(-c2cccs2)on1` [Example 3, N-(5-(3-(N-(oxetan-3-yl)sulfamoyl)azetidin-1-yl)pentyl)-5-(thiophen-2-yl)isoxazole-3-carboxamide], 11.2.
Consider `N#CCCNS(=O)(=O)C1CN(CCCCCNC(=O)c2cc(-c3cccs3)on2)C1` [Example 4, N-(5-(3-(N-(2-cyanoethyl)sulfamoyl)azetidin-1-yl)pentyl)-5-(thiophen-2-yl)isoxazole-3-carboxamide], for which the maximal fold induction worked out at 18.3.
The result for `CNC(=O)COC(=O)NC1CN(CCCCCNC(=O)c2cc(-c3cccs3)on2)C1` [Example 5] reads 17.2; that for `NS(=O)(=O)C1CCCN(CCCCCNC(=O)c2cc(-c3cccs3)on2)C1` (centres unmarked) [Example 6, N-(5-(3-sulfamoylpiperidin-1-yl)pentyl)-5-(thiophen-2-yl)isoxazole-3-carboxamide], 20.1.
Take `NS(=O)(=O)C1CCN(CCCCCNC(=O)c2cc(-c3cccs3)on2)C1` (centres unmarked) [Example 7, N-(5-(3-sulfamoylpyrrolidin-1-yl)pentyl)-5-(thiophen-2-yl)isoxazole-3-carboxamide]: the maximal fold induction was determined as 17.2.
The result for `NC(=O)C1CCN(CCCCCNC(=O)c2cc(-c3ccc(F)cc3)on2)C1` (centres unmarked) [Example 8, N-(5-(3-carbamoylpyrrolidin-1-yl)pentyl)-5-(4-fluorophenyl)isoxazole-3-carboxamide] reads 14.6; that for `NC(=O)C1(CO)CN(CCCCCNC(=O)c2cc(-c3cccs3)on2)C1` [Example 9, N-(5-(3-carbamoyl-3-(hydroxymethyl)azetidin-1-yl)pentyl)-5-(thiophen-2-yl)isoxazole-3-carboxamide], 24.4; that for `NC(=O)C1(CO)CN(CCCCCNC(=O)c2cc(-c3ccc(F)cc3)on2)C1` [Example 10, N-(5-(3-carbamoyl-3-(hydroxymethyl)azetidin-1-yl)pentyl)-5-(4-fluorophenyl)isoxazole-3-carboxamide], 19.1.
The result for `CC1(C(N)=O)CN(CCCCCNC(=O)c2cc(-c3cccs3)on2)C1` [Example 11, N-(5-(3-carbamoyl-3-methylazetidin-1-yl)pentyl)-5-(thiophen-2-yl)isoxazole-3-carboxamide] reads 33.3.
As for `CC1(C(N)=O)CN(CCCCCNC(=O)c2cc(-c3ccc(F)cc3)on2)C1` [Example 12, N-(5-(3-carbamoyl-3-methylazetidin-1-yl)pentyl)-5-(4-fluorophenyl)isoxazole-3-carboxamide], the maximal fold induction was 22.4.
Turning to `NC(=O)C1CN(CCCCCNC(=O)c2cc(-c3cccs3)on2)CC1O` (centres unmarked) [Example 13, N-(5-(3-carbamoyl-4-hydroxypyrrolidin-1-yl)pentyl)-5-(thiophen-2-yl)isoxazole-3-carboxamide], the maximal fold induction worked out at 32.5.
